Bounds are passed on as bounds.

For assay [1], the system named is PMA-stimulated human neutrophils. The experiment in a line: PMA-induced neutrophils' oxidative burst, oxidation of luminol (chemiluminescence). The class given is cell-based. The following applies: PMA 160 nM, mean ± SEM; for Luminol: highest obtained % of inhibition / inhibition at 100 µM: at 100 µM; for inhibition at 100 µM / IC50: Homo sapiens, Neutrophil; for inhibition at 100 µM: read-out: Luminol: highest obtained % of inhibition. How it is done:
Luminol is easily oxidized by reactive species produced during neutrophils’ oxidative burst, resulting in a chemiluminescent signal. The effect of the compounds under study on the modulation of neutrophil oxidative burst was determined after stimulation with PMA, a known neutrophil activator, because its effect is closely analogous to that obtained during the phagocytic process. Following a previously reported method, in a 96-well plate, neutrophils were incubated in the dark at 37 °C for 5 min with luminol (500 μM) and the tested compounds (10–100 μM) or DMSO (final concentration 4%). Quercetin, a flavonoid known for its anti-inflammatory activity (0.3–5.0 μM), and the inhibitor of NADPH oxidase, DPI (0.01–10 μM), were used as controls. After incubation, PMA (160 nM) was added, and the chemiluminescence was measured in a microplate reader (Synergy HT, BIO-TEK Instruments, Inc., Winooski, VT, USA). Kinetic readings were initiated immediately after cell stimulation. Measurements were taken at the peak of the curve. […] Effects are expressed as the inhibition percentage of luminol oxidation. The results obtained represent at least three independent experiments. […]
3.4 Evaluation of neutrophils' oxidative burst
3.4.1 Oxidation of luminol
Luminol is easily oxidized by reactive species produced during neutrophils’ oxidative burst, resulting in a chemiluminescent signal. The eﬀect of the compounds under study on the modulation of neutrophil oxidative burst was determined after stimulation with PMA, a known neutrophil activator, because its eﬀect is closely analogous to that obtained during the phagocytic process. Following a previously reported method, in a 96-well plate, neutrophils were incubated in the dark at 37 °C for 5 minutes with luminol (500 µM) and the tested compounds (10 - 100 µM) or DMSO (ﬁnal concentration 4%). Quercetin, a ﬂavonoid known for its anti-inﬂammatory activity (0.3 - 5.0 µM), and the inhibitor of NADPH oxidase, DPI (0.01 - 10 µM), were used as positive and negative controls, respectively. After incubation, PMA (160 nM) was added, and the chemiluminescence was measured in a microplate reader (Synergy HT, BIO-TEK Instruments, Inc., Winooski, VT, USA). Kinetic readings were initiated immediately after cell stimulation. Measurements were taken at the […]
peak of the curve. […] Eﬀects are expressed as the inhibition percentage of luminol oxidation. The obtained results represent at least three independent experiments.

For assay [2] the test system is unchanged. Put plainly: HOCl generation by PMA-stimulated neutrophils, oxidation of APF. The following applies: PMA 160 nM, mean ± SEM; for APF: highest obtained % of inhibition / inhibition at 50 µM: at 50 µM; for inhibition at 50 µM / IC50: Homo sapiens, Neutrophil; for inhibition at 50 µM: read-out: APF: highest obtained % of inhibition. In kind it is cell-based. How it is done: APF is a non-fluorescent derivative of fluorescein, which is oxidized by HOCl, ONOO^−, and HO^• [87], in a concentration-dependent manner. Its selectivity was tested using the myeloperoxidase (MPO) inhibitor, 4-aminobenzoic acid hydrazide (ABAH). The addition of ABAH to human neutrophils, stimulated with PMA, decreased the APF-dependent fluorescence signal to the level of the control assay, ruling out the involvement of HO^• and ONOO^− [88]. The previously established methodology for monitoring oxidative burst modulation was adapted. In a 96-well plate, neutrophils (2 × 10^6 cells/mL) were incubated in the dark at 37 °C for 5 min with APF (2 μM) and the tested compounds (10–100 μM) or DMSO (4%). Quercetin (0.3–5.0 μM) and DPI (0.01–10 μM) were used as controls. After incubation, PMA (160 nM) was added, and the fluorescence (excitation at 495 nm and emission at 528 nm) was measured in a microplate reader (Synergy HT, BIO-TEK Instruments, Inc., Winooski, VT, USA). Kinetic readings were initiated immediately after the addition of APF. Obtained values correspond to the slope measured between 5 and 15 min. Effects are expressed as the percentage inhibition of APF oxidation. The results obtained represent at least three independent experiments.
APF is a non-ﬂuorescent derivative of ﬂuorescein, which is oxidized by HOCl, [20] ONOO-, and HO• [21] in a concentration- dependent manner. Its selectivity was tested using the myeloperoxidase (MPO) inhibitor, 4-aminobenzoic acid hydrazide (ABAH). The addition of ABAH to human neutrophils, stimulated with PMA, decreased the APF-dependent ﬂuorescence signal to the level of the control assay, ruling out the involvement of HO• and ONOO− [22]. The previously established methodology for monitoring oxidative burst modulation was adapted. In a 96-well plate, neutrophils (2 x 10^6 cells/mL) were incubated in the dark at 37 °C for 5 minutes with APF (2 µM) and the tested compounds (10 - 100 µM) or DMSO (4%). Quercetin (0.3 - 5.0 µM) and DPI (0.01 - 10 µM) were used as positive and negative controls, respectively. After incubation, PMA (160 nM) was added, and the ﬂuorescence (excitation at 495 nm and emission at 528 nm) was measured in a microplate reader (Synergy HT, BIO-TEK Instruments, Inc., Winooski, VT, USA). Kinetic readings were initiated immediately after the addition of APF. Obtained values correspond to the slope measured between 5 and 15 minutes. Eﬀects are expressed as the percentage inhibition of APF oxidation. The obtained results represent at least three independent experiments. […]
(§1) GraphPad Prism 6 software was used to plot the inhibition percentage versus compound concentration curves, enabling the determination of the concentration required to achieve 50% inhibition (IC50). GraphPad Prism 6 software was also used to perform all statistical analyses.
(§2) […] was estimated by applying the one-way analysis (ANOVA), followed by the Bonferroni’s multiple comparisons test. In all cases, p-values < 0.05 were considered statistically signiﬁcant. The results are expressed as mean ± standard error of the mean (SEM).

For assay [3] the test system is unchanged. The experiment in a line: H2O2 generation by PMA-stimulated neutrophils, oxidation of Amplex Red. The class given is cell-based. The following applies: PMA 160 nM, mean ± SEM; for Amplex Red: highest obtained % of inhibition / inhibition at 50 µM: at 50 µM; for inhibition at 50 µM / IC50: Homo sapiens, Neutrophil; for inhibition at 50 µM: read-out: Amplex Red: highest obtained % of inhibition. How it is done: Amplex Red is a highly sensitive and chemically stable fluorescent probe for the extracellular detection of H2O2 [82]. The methodology used previously for monitoring the modulation of the oxidative burst was adapted. In a 96-well plate, neutrophils (2 × 10^6 cells/mL) were incubated in the dark at 37 °C for 5 min with Amplex Red (25 μM), horseradish peroxidase (0.25 U/mL), and the compounds under study (10–100 μM) or DMSO (4%). Quercetin (0.3–5.0 μM) and DPI (0.01–10 μM) were used as controls. After incubation, PMA (160 nM) was added, and the fluorescence (excitation at 530 nm and emission at 590 nm) was measured in a microplate reader (Synergy HT, BioTek Instruments, Inc., Winooski, VT, USA). Obtained values correspond to the slope measured between 5 and 10 min. Effects are expressed as the percentage inhibition of Amplex Red oxidation. The results obtained represent at least three independent experiments. […] 3.4.3 Oxidation of Amplex Red
Amplex Red is a highly sensitive and chemically stable ﬂuorescent probe for the extracellular detection of H2O2 [16]. The methodology used previously for monitoring the modulation of the oxidative burst was adapted.
In a 96-well plate, neutrophils (2 x 10^6 cells/mL) were incubated in the dark at 37 °C for 5 minutes with Amplex Red (25 µM), horseradish peroxidase (0.25 U/mL) , and the compounds under study (10 - 100 µM) or DMSO (4%). Quercetin (0.3 - 5.0 µM) and DPI (0.01 - 10 µM) were used as positive controls for inhibition. After incubation, PMA (160 nM) was added, and the ﬂuorescence (excitation at 530 nm and emission at 590 nm) was measured in a microplate reader (Synergy HT, BioTek Instruments, Inc., Winooski, VT, USA). Obtained values correspond to the slope measured between 5 and 10 minutes. Eﬀects are expressed as the percentage inhibition of Amplex Red oxidation. The obtained results represent at least three independent experiments.
as §1, §2

Assay [4] relates to RAW 264.7 macrophages. Also on record: method as in PMID 11292070, doi:10.1016/j.fbio.2025.105894. Conditions: read-out: IC50 for the inhibition of •NO; cited from earlier work.

Turning to “3-Hydroxy-2-(galactopyranosyl)propyl bis(3-phenylpropyl) phosphate [Compound 1f]”, in assay [1], the “Luminol: highest obtained % of inhibition” value was <20% ^100µM. The “APF: highest obtained % of inhibition” value in assay [2] is <20% ^50µM. Moreover, in assay [3], the “Amplex Red: highest obtained % of inhibition” value is given as <20% ^50µM.

As to “3-Hydroxy-2-galactopyranosylpropyl (bis(2-aminoethyl)) phosphate [Compound 1c]”, the “Luminol: highest obtained % of inhibition” value in assay [1] was <20% ^100µM. For the same compound, in assay [2], the “APF: highest obtained % of inhibition” value was 22 ± 8% ^50µM. For the same compound, the “Amplex Red: highest obtained % of inhibition” value in assay [3] is given as <20% ^50µM.

Turning to `NCCOP(=O)(OCCN)OCC1OC(OC(CO)CO)C(O)C(O)C1O` (stereo not shown) [Compound 1d], in assay [1], the inhibition at 100 µM is < 20%. Also, the inhibition at 50 µM was 21 ± 6% in assay [2] and 30 ± 9% in assay [3].

Take `COc1ccc(CCCOP(=O)(OCCCc2ccc(OC)c(OC)c2)OCC(CO)OC2OC(CO)C(O)C(O)C2O)cc1OC` (stereo not shown) [Compound 1g, 3-Hydroxy-2-(galactopyranosyl)propyl (bis(3-(3,4-dimethoxyphenyl)propyl) phosphate]: the inhibition at 100 µM in assay [1] was < 20%. Also, the inhibition at 50 µM in assay [2] and in assay [3] was < 20% throughout.

For the compound `c1ccc2c(c1)[I+]c1ccccc1-2` [DPI, diphenyleneiodonium chloride, reference compound], the IC50 amounted to 80 ± 10 nM in assay [1], 30 ± 3 nM in assay [2] and 60 ± 4 nM in assay [3].

`O=c1c(O)c(-c2ccc(O)c(O)c2)oc2cc(O)cc(O)c12` [Quercetin, quercetin, reference compound]: the IC50 in assay [1] amounted to 1200 ± 200 nM; in assay [2], 2400 ± 200 nM; in assay [3], 4100 ± 300 nM.

As to `COc1ccc2c(c1)c(CC(=O)O)c(C)n2C(=O)c1ccc(Cl)cc1` [indomethacin], in assay [4], the IC50 is 10100 nM.

The values above are taken from publication PMC12251482, “Floridoside Phosphotriester Derivatives: Synthesis and Inhibition of Human Neutrophils’ Oxidative Burst” (Molecules, 2025).
